Measured values as given in PubChem BioAssay AID248 (DTP/NCI, 2004).
Where “and” joins values, the source holds several entries; their conditions need not be identical. Equal values may be shown once. Inconclusive results and toxic doses are left out. Cut-off read from the data, not from the text of the source: active = T/C of 150% or more; inactive = T/C below 125%. Square brackets hold non-standard residues; d marks the D form. Peptide text beside a SMILES is read from it. ξ: configuration not given here. ξF = NC(Cc1ccccc1)C(=O)O

Test system: L1210 leukemia ip in BDF1 mice, survival T/C
Assay: NCI In Vivo Anticancer Drug Screen. Data for tumor model L1210 Leukemia (intraperitoneal) in B6D2F1 (BDF1) mice
Settings: endpoint: mean survival time, higher = longer survival
In short: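 Tumor cells were implanted, animals were treated, and survival was followed. The result divides the treated measurement by the vehicle-control measurement.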

[1] = dose: 50.0 mg/kg/injection, schedule: Q04DX002 (ip), vehicle: saline with Tween-80
[2] = dose: 100.0 mg/kg/injection, schedule: Q04DX002 (ip), vehicle: saline with Tween-80
[3] = dose: 200.0 mg/kg/injection, schedule: Q04DX002 (ip), vehicle: saline with Tween-80
[4] = dose: 100.0 mg/kg/injection, schedule: Q04DX003 (ip), vehicle: Klucel (hydroxypropylcellulose) (HPC)
[5] = dose: 200.0 mg/kg/injection, schedule: Q04DX003 (ip), vehicle: Klucel (hydroxypropylcellulose) (HPC)
[6] = dose: 400.0 mg/kg/injection, schedule: Q04DX003 (ip), vehicle: Klucel (hydroxypropylcellulose) (HPC)
[7] = dose: 50.0 mg/kg/injection, schedule: Q04DX003 (ip), vehicle: saline
[8] = dose: 100.0 mg/kg/injection, schedule: Q04DX003 (ip), vehicle: saline
[9] = dose: 200.0 mg/kg/injection, schedule: Q04DX003 (ip), vehicle: saline
[10] = dose: 100.0 mg/kg/injection, schedule: Q04DX002 (ip), vehicle: other
[11] = dose: 200.0 mg/kg/injection, schedule: Q04DX002 (ip), vehicle: other
[12] = dose: 100.0 mg/kg/injection, schedule: Q01DX001 (ip), vehicle: saline
[13] = dose: 200.0 mg/kg/injection, schedule: Q01DX001 (ip), vehicle: saline
[14] = dose: 400.0 mg/kg/injection, schedule: Q01DX001 (ip), vehicle: saline
[15] = dose: 50.0 mg/kg/injection, schedule: Q01DX001 (ip), vehicle: saline
[16] = dose: 100.0 mg/kg/injection, schedule: Q01DX009 (ip), vehicle: saline
[17] = dose: 200.0 mg/kg/injection, schedule: Q01DX009 (ip), vehicle: saline
[18] = dose: 25.0 mg/kg/injection, schedule: Q04DX003 (ip), vehicle: saline

Measured: T/C

CC(C)c1ccccc1NC1=NCCO1
inactive: dose: 12.5 mg/kg/injection, schedule: Q01DX009 (ip), vehicle: Klucel (hydroxypropylcellulose) (HPC) 86 % of control | dose: 25.0 mg/kg/injection, schedule: Q01DX009 (ip), vehicle: Klucel (hydroxypropylcellulose) (HPC) 89 % of control | dose: 25.0 mg/kg/injection, schedule: Q04DX002 (ip), vehicle: saline with Tween-80 101 % of control | dose: 50.0 mg/kg/injection, schedule: Q01DX009 (ip), vehicle: Klucel (hydroxypropylcellulose) (HPC) 96 % of control and 89 % of control | [1] 96 % of control | [2] 86 % of control | [3] 86 % of control

CCc1cccc[n+]1CC(=O)c1ccc(-c2ccccc2)cc1
inactive: [4] 86 % of control

CS(=O)(=O)Cc1ccc([N+](=O)[O-])cc1
inactive: [4] 103 % of control | [5] 109 % of control | [6] 103 % of control

O=c1[nH]nc(/C=C/c2ccccc2)o1
inactive: [7] 103 % of control | [8] 95 % of control | [9] 97 % of control

O=[N+]([O-])c1cc(Br)c(N2CCCC2)cc1N1CCCC1
inactive: dose: 100.0 mg/kg/injection, schedule: Q01DX009 (ip), vehicle: Klucel (hydroxypropylcellulose) (HPC) 106 % of control | [4] 104 % of control | dose: 200.0 mg/kg/injection, schedule: Q01DX009 (ip), vehicle: Klucel (hydroxypropylcellulose) (HPC) 106 % of control | [5] 93 % of control | dose: 400.0 mg/kg/injection, schedule: Q01DX009 (ip), vehicle: Klucel (hydroxypropylcellulose) (HPC) 98 % of control | [6] 88 % of control

CCCCS(=O)c1nc2ccccc2s1 (stereo not given)
inactive: [10] 88 % of control | [11] 91 % of control

Cc1nn[nH]n1
inactive: [12] 119 % of control | [13] 105 % of control | [14] 105 % of control

Cc1cccc(NC(=O)C2CCC(C)(C(=O)O)C2(C)C)c1 (stereo not given)
inactive: dose: 50.0 mg/kg/injection, schedule: Q01DX009 (ip), vehicle: saline with Tween-80 101 % of control | dose: 100.0 mg/kg/injection, schedule: Q01DX009 (ip), vehicle: saline with Tween-80 101 % of control | dose: 200.0 mg/kg/injection, schedule: Q01DX009 (ip), vehicle: saline with Tween-80 96 % of control

O=C(Nc1ccccc1)OC/C=C\c1ccccc1
inactive: dose: 200.0 mg/kg/injection, schedule: Q04DX002 (ip), vehicle: Klucel (hydroxypropylcellulose) (HPC) 90 % of control | dose: 400.0 mg/kg/injection, schedule: Q04DX002 (ip), vehicle: Klucel (hydroxypropylcellulose) (HPC) 93 % of control

O=C1CCOc2ccccc21
inactive: [10] 87 % of control | [11] 90 % of control | dose: 400.0 mg/kg/injection, schedule: Q04DX002 (ip), vehicle: other 94 % of control

COC1=CC(=O)CC(C)C12Oc1c(Cl)c(OC)cc(OC)c1C2=O (stereo not given)
inactive: dose: 5.0 mg/kg/injection, schedule: Q## X008 (ip), vehicle: other 103 % of control | dose: 10.0 mg/kg/injection, schedule: Q## X008 (ip), vehicle: other 91 % of control | dose: 20.0 mg/kg/injection, schedule: Q## X008 (ip), vehicle: other 94 % of control | dose: 40.0 mg/kg/injection, schedule: Q## X008 (ip), vehicle: other 91 % of control | dose: 50.0 mg/kg/injection, schedule: Q## X024 (ip), vehicle: other 111 % of control | dose: 80.0 mg/kg/injection, schedule: Q## X008 (ip), vehicle: other 88 % of control | dose: 100.0 mg/kg/injection, schedule: Q## X024 (ip), vehicle: other 100 % of control | dose: 200.0 mg/kg/injection, schedule: Q## X024 (ip), vehicle: other 100 % of control | dose: 400.0 mg/kg/injection, schedule: Q## X024 (ip), vehicle: other 95 % of control | dose: 800.0 mg/kg/injection, schedule: Q## X024 (ip), vehicle: other 100 % of control

OCCN(CCO)c1cccc(C(F)(F)F)c1
inactive: [15] 96 % of control | [12] 100 % of control | [13] 106 % of control | [14] 96 % of control

O=C(Nc1cccc(F)c1)N(CCO)C1CCCCC1
inactive: [16] 105 % of control | [17] 113 % of control | dose: 400.0 mg/kg/injection, schedule: Q01DX009 (ip), vehicle: saline 100 % of control

CCCCCc1ccc(C)cc1OC(=O)CCl
inactive: dose: 28.0 mg/kg/injection, schedule: Q01DX Z (ip), vehicle: methylcellulose (MC) 97 % of control | dose: 42.0 mg/kg/injection, schedule: Q01DX Z (ip), vehicle: methylcellulose (MC) 97 % of control | dose: 62.0 mg/kg/injection, schedule: Q01DX Z (ip), vehicle: methylcellulose (MC) 92 % of control

CCOC(=O)C(C)(NC(C)=O)C(C)=O (stereo not given)
inactive: dose: 50.0 mg/kg/injection, schedule: Q01DX001 (ip), vehicle: carboxymethylcellulose (CMC) 106 % of control | dose: 100.0 mg/kg/injection, schedule: Q01DX001 (ip), vehicle: carboxymethylcellulose (CMC) 114 % of control | dose: 200.0 mg/kg/injection, schedule: Q01DX001 (ip), vehicle: carboxymethylcellulose (CMC) 101 % of control | dose: 400.0 mg/kg/injection, schedule: Q01DX001 (ip), vehicle: carboxymethylcellulose (CMC) 92 % of control

O=C1C(=O)c2ccccc2C(O)=C1C(C1=C(O)c2ccccc2C(=O)C1=O)c1ccc(Cl)cc1Cl
inactive: dose: 75.0 mg/kg/injection, schedule: Q01DX001 (ip), vehicle: other 91 % of control | dose: 150.0 mg/kg/injection, schedule: Q01DX001 (ip), vehicle: other 91 % of control | dose: 300.0 mg/kg/injection, schedule: Q01DX001 (ip), vehicle: other 107 % of control

CC(c1ccccc1)[As](C)(=O)O (stereo not given)
inactive: [18] 102 % of control | [7] 100 % of control | [8] 122 % of control

N#CSCc1cc([N+](=O)[O-])c(CSC#N)c([N+](=O)[O-])c1Cl
inactive: dose: 25.0 mg/kg/injection, schedule: Q01DX009 (ip), vehicle: other 89 % of control | dose: 100.0 mg/kg/injection, schedule: Q04DX003 (ip), vehicle: carboxymethylcellulose (CMC) 87 % of control | dose: 200.0 mg/kg/injection, schedule: Q04DX003 (ip), vehicle: carboxymethylcellulose (CMC) 93 % of control

CCCCCCCCCCNC(=O)C[n+]1cccc(C(=O)NC)c1
inactive: dose: 12.5 mg/kg/injection, schedule: Q04DX003 (ip), vehicle: saline 95 % of control | [18] 89 % of control

NCC(=O)NC(Cc1ccccc1)C(=O)O (stereo not given) (H-Gly-[ξF]-OH)
inactive: [15] 110 % of control | [12] 96 % of control | [13] 112 % of control | [14] 107 % of control

O=C(O)C[As](=O)(O)O
inactive: dose: 30.0 mg/kg/injection, schedule: Q01DX009 (ip), vehicle: saline 90 % of control | dose: 60.0 mg/kg/injection, schedule: Q01DX009 (ip), vehicle: saline 97 % of control

NC(C(=O)O)c1cccc(F)c1 (stereo not given)
inactive: [15] 98 % of control | [12] 101 % of control | [13] 101 % of control | [14] 95 % of control

CC(=O)Nc1ccc2c(O)cc(S(=O)(=O)O)cc2c1
inactive: dose: 50.0 mg/kg/injection, schedule: Q01DX009 (ip), vehicle: saline 95 % of control | [16] 99 % of control | [8] 101 % of control | [17] 100 % of control | [9] 104 % of control | dose: 400.0 mg/kg/injection, schedule: Q04DX003 (ip), vehicle: saline 98 % of control

COc1ccc(/C=C(\SS/C(=C/c2ccc(OC)cc2)C(=O)O)C(=O)O)cc1
inactive: [12] 89 % of control | [13] 94 % of control

C1CCC2C(C1)CCCC2CCC1CCCC2CCCCC21 (stereo not given)
inactive: [1] 95 % of control | [2] 92 % of control | [3] 89 % of control | dose: 400.0 mg/kg/injection, schedule: Q04DX002 (ip), vehicle: saline with Tween-80 100 % of control
